Assay results from patent US20250043299A1, “POINT MUTATIONS THAT BOOST AROMATIC AMINO ACID PRODUCTION AND CO2 ASSIMILATION IN PLANTS” (Wisconsin Alumni Research Foundation, priority 2021, published 2025).
Like-named read-outs stand apart in the source and are kept apart here.

What was measured:
[1] = molecular target: T1, DHS1^B4 (Arabidopsis thaliana, UniProt P29976, G244R); test: DHS enzyme assay, recombinant DHS1^B4; assay type: biochemical; details: recombinant enzyme; for IC50: read-out: IC50 of effector molecule on DHS1^B4
T1 construct: without the predicted plastid transit peptide (amino acid residues; 49-525, 34-507, and 52-527, respectively); made in house; host or cells: E. coli
T1 sequence (P29976 49-525 G244R): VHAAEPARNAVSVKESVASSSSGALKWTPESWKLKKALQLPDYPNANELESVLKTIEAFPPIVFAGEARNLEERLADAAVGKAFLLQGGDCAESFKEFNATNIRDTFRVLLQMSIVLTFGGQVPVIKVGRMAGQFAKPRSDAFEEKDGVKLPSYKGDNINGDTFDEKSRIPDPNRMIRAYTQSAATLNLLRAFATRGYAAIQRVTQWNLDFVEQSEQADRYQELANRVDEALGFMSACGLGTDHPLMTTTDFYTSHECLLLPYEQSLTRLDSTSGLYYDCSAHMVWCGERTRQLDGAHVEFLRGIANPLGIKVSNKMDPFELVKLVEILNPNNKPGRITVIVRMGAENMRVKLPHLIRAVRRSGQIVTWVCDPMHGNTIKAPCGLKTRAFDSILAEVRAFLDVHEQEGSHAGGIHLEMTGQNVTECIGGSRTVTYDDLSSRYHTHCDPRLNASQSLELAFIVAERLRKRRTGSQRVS
Experimental: (§1) To generate recombinant DHS proteins the pET28a vectors carrying the A. thaliana DHS1 (AtDHS1), AtDHS2, or AtDHS3 WT sequence without the predicted plastid transit peptide (amino acid residues; 49-525, 34-507, and 52-527, respectively) were expressed in E. coli Rosetta-2 cells and purified using Ni-affinity chromatography, exactly as was conducted previously (9). To generate DHS proteins with individual sota mutations via site-directed mutagenesis, these pET28a plasmid templates were diluted by 500-fold, mixed with 0.04 U/μL Phusion DNA polymerase (Thermo Scientific), 0.2 mM deoxynucleoside triphosphates (dNTPs), 1× Phusion reaction buffer (Thermo Scientific), and 0.5 μM forward and reverse mutagenesis primers (Table 10). The PCR reaction was run using the following protocol: 98° C. for 30 s followed by 20 cycles of 10 s at 98° C., 20 s at 70° C., 4.5 min at 72° C. with a final extension at 72° C. for 10 min. The PCR products were purified using a QIAquick Gel Extraction Kit (QIAGEN), treated with FastDigest DpnI (Thermo Scientific) to digest methylated plasmid template DNA for 20 min at 37° C., and transformed into E. coli cells. The mutagenized pET28a plasmids were sequenced to confirm that no errors were introduced during the mutagenesis process.
(§2) The DHS enzyme assays were conducted using the colorimetric method that we recently described (9). Briefly, the enzyme solution (7.7 μl) containing 50 mM Hepes (pH 7.4) was preincubated with an effector molecule(s) at room temperature for 15 min. For assays using recombinant protein and enzyme fractions isolated from plant leaves, 0.01 to 0.1 μg and approximately 50 μg of proteins were used, respectively. After adding 0.5 μl of 0.1 M dithiothreitol, the samples were further incubated at room temperature for 15 min. During these incubations, the substrate solution containing 50 mM Hepes (pH 7.4), 2 mM MnCl2, 4 mM E4P, and 4 mM PEP at final concentration was preheated at 37° C. The enzyme reaction was started by adding 6.8 μl of the substrate solution, then incubated at 37° C. for 30 min, and terminated by adding 30 μl of 0.6 M trichloroacetic acid. After a brief centrifugation, 5 μl of 200 mM NaIO4 (sodium meta-periodate) in 9 N H3PO4 was added to oxidize the enzymatic product and to incubate at 25° C. for 20 min. To stop the oxidation reaction, 20 μl of 0.75 M NaAsO2 (sodium arsenite), which was dissolved in 0.5 M Na2SO4 and 0.05 M H2SO4, was added and immediately mixed. After 5 min of incubation at room temperature, one-third of the sample solution was transferred to a new tube to be mixed with 50 μl of 40 mM thiobarbituric acid and incubated at 99° C. for 15 min in a thermal cycler. The mixture was added to 600 μl of cyclohexanone in eight-strip solvent-resistant plastic tubes, mixed vigorously, and centrifuged at 4500 g for 3 min to separate water- and cyclohexanone-based layers for the extraction off the developed pink chromophore. The absorbance of the pink supernatant was read at 549 nm with the microplate reader (Infinite 200 PRO, TECAN) to calculate DAHP production with the molar extinction coefficient at 549 nm (ε=549 nm) of 4.5×10^4 M^−1 cm^−1. Reaction mixtures with boiled enzymes were run in parallel and used as negative controls to estimate the background signal.

[2] = molecular target: T2, DHS2^A4 (Arabidopsis thaliana, UniProt Q00218, G222S); assay type: biochemical; details: for IC50: read-out: IC50 of effector molecule on DHS2^A4
T2 construct: without the predicted plastid transit peptide (amino acid residues; 49-525, 34-507, and 52-527, respectively); made in house; host or cells: E. coli
Experimental: as §1, §2

[3] = molecular target: T3, DHS2^A11 (Arabidopsis thaliana, UniProt Q00218, A224T); test: DHS enzyme assay, recombinant DHS2^A11; assay type: biochemical; details: for IC50: read-out: IC50 of effector molecule on DHS2^A11
T3 construct: without the predicted plastid transit peptide (amino acid residues; 49-525, 34-507, and 52-527, respectively); made in house; host or cells: E. coli
T3 sequence (Q00218 34-507 A224T): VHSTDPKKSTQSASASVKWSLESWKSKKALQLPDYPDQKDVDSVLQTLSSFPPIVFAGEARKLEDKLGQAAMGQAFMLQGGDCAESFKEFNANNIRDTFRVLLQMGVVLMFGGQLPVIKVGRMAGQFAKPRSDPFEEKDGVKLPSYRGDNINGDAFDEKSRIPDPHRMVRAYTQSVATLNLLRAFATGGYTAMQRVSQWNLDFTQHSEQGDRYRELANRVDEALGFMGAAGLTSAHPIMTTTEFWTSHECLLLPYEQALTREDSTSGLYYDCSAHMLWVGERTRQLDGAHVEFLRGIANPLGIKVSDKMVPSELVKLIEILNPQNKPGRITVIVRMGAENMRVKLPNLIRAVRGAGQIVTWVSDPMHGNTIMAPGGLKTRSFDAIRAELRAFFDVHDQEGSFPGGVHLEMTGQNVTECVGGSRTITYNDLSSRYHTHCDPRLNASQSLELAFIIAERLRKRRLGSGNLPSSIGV
Experimental: as §1, §2

[4] = molecular target: T4, DHS2^F1 (Arabidopsis thaliana, UniProt Q00218, L136F); test: DHS enzyme assay, recombinant DHS2^F1; assay type: biochemical; details: for IC50: read-out: IC50 of effector molecule on DHS2^F1
T4 construct: without the predicted plastid transit peptide (amino acid residues; 49-525, 34-507, and 52-527, respectively); made in house; host or cells: E. coli
T4 sequence (Q00218 34-507 L136F): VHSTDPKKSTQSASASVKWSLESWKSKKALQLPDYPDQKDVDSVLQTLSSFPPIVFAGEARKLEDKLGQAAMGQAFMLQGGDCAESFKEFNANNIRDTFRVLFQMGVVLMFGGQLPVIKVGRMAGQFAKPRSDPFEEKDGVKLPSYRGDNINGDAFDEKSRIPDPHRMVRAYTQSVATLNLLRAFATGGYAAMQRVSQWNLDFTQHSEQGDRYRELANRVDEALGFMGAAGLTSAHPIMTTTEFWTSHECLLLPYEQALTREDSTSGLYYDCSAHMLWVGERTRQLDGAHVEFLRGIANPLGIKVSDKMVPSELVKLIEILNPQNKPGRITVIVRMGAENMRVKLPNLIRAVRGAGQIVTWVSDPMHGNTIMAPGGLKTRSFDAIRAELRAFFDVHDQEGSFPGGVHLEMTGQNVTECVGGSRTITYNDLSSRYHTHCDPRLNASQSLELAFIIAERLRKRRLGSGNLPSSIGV
Experimental: as §1, §2

[5] = molecular target: T5, DHS1^WT (Arabidopsis thaliana, UniProt P29976); test: DHS enzyme assay (colorimetric), recombinant DHS1^WT; assay type: biochemical; details: recombinant enzyme; read-out: IC50 of effector molecule on DHS1^WT
T5 construct: without the predicted plastid transit peptide (amino acid residues; 49-525, 34-507, and 52-527, respectively); made in house; host or cells: E. coli Rosetta-2
T5 sequence (P29976 49-525): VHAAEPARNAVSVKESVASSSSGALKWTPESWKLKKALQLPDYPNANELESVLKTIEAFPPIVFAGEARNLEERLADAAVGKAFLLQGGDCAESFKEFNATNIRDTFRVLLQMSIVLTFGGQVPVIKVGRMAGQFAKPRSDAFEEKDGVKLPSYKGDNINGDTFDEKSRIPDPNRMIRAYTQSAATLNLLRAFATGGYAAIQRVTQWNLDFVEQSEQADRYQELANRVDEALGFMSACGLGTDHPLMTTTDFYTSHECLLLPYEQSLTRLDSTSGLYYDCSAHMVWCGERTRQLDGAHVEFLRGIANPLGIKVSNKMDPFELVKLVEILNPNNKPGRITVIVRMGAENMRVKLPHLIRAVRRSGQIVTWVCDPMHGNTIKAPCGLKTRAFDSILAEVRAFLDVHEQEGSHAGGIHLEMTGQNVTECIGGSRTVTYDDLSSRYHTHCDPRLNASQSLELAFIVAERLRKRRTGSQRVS
Experimental: as §1, §2

[6] = molecular target: T6, Arabidopsis thaliana DHS1 (SEQ ID NO:1) variant DHS1^B4 (sotaB4), G244R (Arabidopsis thaliana, UniProt P29976, G244R); test: DHS enzyme assay with effector, DHS1 sotaB4; assay type: biochemical
T6 construct: without the predicted plastid transit peptide (amino acid residues; 49-525, 34-507, and 52-527, respectively); made in house; host or cells: E. coli
T6 sequence (P29976 49-525 G244R): as the sequence (P29976 49-525 G244R) above
Experimental: as §1, §2

[7] = molecular target: T7, Arabidopsis thaliana DHS2 (SEQ ID NO:2) variant DHS2^A4 (sotaA4), G222S (Arabidopsis thaliana, UniProt Q00218, G222S); test: biochemical; assay type: biochemical
T7 construct: without the predicted plastid transit peptide (amino acid residues; 49-525, 34-507, and 52-527, respectively); made in house; host or cells: E. coli
Experimental: as §1, §2

[8] = molecular target: T8, Arabidopsis thaliana DHS2 (SEQ ID NO:2) variant DHS2^A11 (sotaA11), A224T (Arabidopsis thaliana, UniProt Q00218, A224T); test: DHS enzyme assay with effector, DHS2 sotaA11; assay type: biochemical
T8 construct: without the predicted plastid transit peptide (amino acid residues; 49-525, 34-507, and 52-527, respectively); made in house; host or cells: E. coli
T8 sequence (Q00218 34-507 A224T): as the sequence (Q00218 34-507 A224T) above
Experimental: as §1
(§3) The DHS enzyme assays were conducted using the colorimetric method that we recently described (9). Briefly, the enzyme solution (7.7 μl) containing 50 mM Hepes (pH 7.4) was preincubated with an effector molecule(s) at room temperature for 15 min. For assays using recombinant protein and enzyme fractions isolated from plant leaves, 0.01 to 0.1 μg and approximately 50 μg of proteins were used, respectively. After adding 0.5 μl of 0.1 M dithiothreitol, the samples were further incubated at room temperature for 15 min. […] The absorbance of the pink supernatant was read at 549 nm with the microplate reader (Infinite 200 PRO, TECAN) to calculate DAHP production with the molar extinction coefficient at 549 nm (ε=549 nm) of 4.5×10^4 M^−1 cm^−1. […]

[9] = molecular target: T9, Arabidopsis thaliana DHS2 (SEQ ID NO:2) variant DHS2^F1 (sotaF1), L136F (Arabidopsis thaliana, UniProt Q00218, L136F); test: DHS enzyme assay with effector, DHS2 sotaF1; assay type: biochemical
T9 construct: without the predicted plastid transit peptide (amino acid residues; 49-525, 34-507, and 52-527, respectively); made in house; host or cells: E. coli
T9 sequence (Q00218 34-507 L136F): as the sequence (Q00218 34-507 L136F) above
Experimental: as §1, §3

[10] = molecular target: Arabidopsis thaliana DHS3 (AtDHS3), wild type (DHS3^WT), SEQ ID NO:3 (Arabidopsis thaliana, UniProt Q9SK84); test: DHS enzyme assay with effector, Arabidopsis DHS3 WT; assay type: biochemical
Chain of Arabidopsis thaliana DHS3 (AtDHS3), wild type (DHS3^WT), SEQ ID NO:3 (Q9SK84 entry or part of it): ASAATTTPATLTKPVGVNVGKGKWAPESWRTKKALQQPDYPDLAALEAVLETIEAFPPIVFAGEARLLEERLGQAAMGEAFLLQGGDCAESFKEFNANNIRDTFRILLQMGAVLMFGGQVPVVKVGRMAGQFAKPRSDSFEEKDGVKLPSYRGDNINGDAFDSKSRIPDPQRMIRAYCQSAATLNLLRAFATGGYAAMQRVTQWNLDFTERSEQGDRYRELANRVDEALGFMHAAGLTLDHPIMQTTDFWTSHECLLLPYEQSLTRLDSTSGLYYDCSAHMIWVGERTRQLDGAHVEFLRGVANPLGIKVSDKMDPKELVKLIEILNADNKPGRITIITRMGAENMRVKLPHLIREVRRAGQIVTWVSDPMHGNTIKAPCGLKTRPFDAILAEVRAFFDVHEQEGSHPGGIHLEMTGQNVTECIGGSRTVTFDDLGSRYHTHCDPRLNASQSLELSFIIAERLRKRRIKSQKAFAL
Experimental: as §1, §3

[11] = molecular target: Arabidopsis thaliana DHS3 (SEQ ID NO:3) variant DHS3^G1 (sotaG1), A240T (Arabidopsis thaliana, UniProt Q9SK84, A240T); test: DHS enzyme assay with effector, DHS3 sotaG1; assay type: biochemical
Chain of Arabidopsis thaliana DHS3 (SEQ ID NO:3) variant DHS3^G1 (sotaG1), A240T (Q9SK84 entry or part of it A240T): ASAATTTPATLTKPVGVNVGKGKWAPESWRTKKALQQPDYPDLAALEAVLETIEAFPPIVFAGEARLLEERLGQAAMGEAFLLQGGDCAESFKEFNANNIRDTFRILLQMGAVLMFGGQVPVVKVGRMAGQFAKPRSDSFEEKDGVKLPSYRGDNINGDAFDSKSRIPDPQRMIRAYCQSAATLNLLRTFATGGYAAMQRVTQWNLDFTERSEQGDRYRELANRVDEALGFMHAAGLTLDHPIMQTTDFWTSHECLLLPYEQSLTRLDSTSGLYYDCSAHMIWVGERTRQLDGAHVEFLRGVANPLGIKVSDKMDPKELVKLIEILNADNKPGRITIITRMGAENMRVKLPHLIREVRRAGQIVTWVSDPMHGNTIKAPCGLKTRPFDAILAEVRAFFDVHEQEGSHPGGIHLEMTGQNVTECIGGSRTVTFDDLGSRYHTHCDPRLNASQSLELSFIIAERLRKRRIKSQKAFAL
Experimental: as §1, §3

[12] = molecular target: Arabidopsis thaliana DHS3 (SEQ ID NO:3) variant DHS3^H1 (sotaH1), G114R (Arabidopsis thaliana, UniProt Q9SK84, G114R); test: DHS enzyme assay with effector, DHS3 sotaH1; assay type: biochemical
Chain of Arabidopsis thaliana DHS3 (SEQ ID NO:3) variant DHS3^H1 (sotaH1), G114R (Q9SK84 entry or part of it G114R): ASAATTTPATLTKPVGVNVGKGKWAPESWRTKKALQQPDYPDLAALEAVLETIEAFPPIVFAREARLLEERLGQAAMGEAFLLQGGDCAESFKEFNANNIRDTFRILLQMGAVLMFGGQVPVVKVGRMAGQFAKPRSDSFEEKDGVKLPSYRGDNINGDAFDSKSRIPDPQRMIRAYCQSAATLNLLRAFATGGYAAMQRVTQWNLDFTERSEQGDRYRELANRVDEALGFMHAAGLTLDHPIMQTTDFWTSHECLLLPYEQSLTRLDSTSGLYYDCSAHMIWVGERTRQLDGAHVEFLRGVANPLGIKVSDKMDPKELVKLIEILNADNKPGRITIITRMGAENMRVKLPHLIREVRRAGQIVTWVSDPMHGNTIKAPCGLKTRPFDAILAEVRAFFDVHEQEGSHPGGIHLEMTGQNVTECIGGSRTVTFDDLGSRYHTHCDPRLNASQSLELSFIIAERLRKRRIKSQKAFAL
Experimental: as §1, §3

[13] = test system: all DHS^WT isoforms; test: DHS enzyme assay, summary over all DHS^WT isoforms; assay type: biochemical, Arabidopsis thaliana; details: for inhibition of all DHS^WT isoforms: FIG. 2D
Experimental: as §1, §3

[14] = DHS3^WT, 4 mM E4P, 4 mM PEP, pH 7.4, 37° C., read-out: IC50

SMILES	IC50 [5]	IC50 [1]	IC50 ([2]; recombinant enzyme)	IC50 ([3]; recombinant enzyme)	IC50 ([4]; recombinant enzyme)	IC50 [6]	IC50 [7]	IC50 [8]	IC50 [9]	IC50 [11]	IC50 [12]	inhibition of all DHS^WT isoforms [13]	IC50 [10, 14]	further results
N[C@@H](Cc1c[nH]c2ccccc12)C(=O)O [Trp, tryptophan]	–	–	–	–	–	–	–	–	–	–	–	–	–	IC50 of effector molecule on DHS1^B4 [1]: Not inhibited; inhibition of DHS2^A4 activity ([2]; effector up to 1 mM): not inhibited; IC50 of effector molecule on DHS2^A4 ([2]; recombinant enzyme): Not inhibited; inhibition of DHS2^A11 activity ([3]; effector up to 1 mM): not inhibited; IC50 of effector molecule on DHS2^A11 ([3]; recombinant enzyme): Not inhibited; inhibition of DHS2^F1 activity ([4]; effector up to 1 mM): not inhibited; IC50 of effector molecule on DHS2^F1 ([4]; recombinant enzyme): Not inhibited
O=C(O)Cc1cc(O)ccc1O [HGA, homogentisate]	253 µM	2990 µM	212 µM	242 µM	788 µM	2990 µM	212 µM	242 µM	788 µM	375 µM	405 µM	effectively inhibited	–	IC50 [10]: 102 µM; IC50 ([13]; range over the three isoforms): 75 to 250 µM
O=C(O)C(=O)Cc1ccc(O)cc1 [HPP, 4-Hydroxyphenylpyruvate]	–	835 µM	143 µM	58.6 µM	321 µM	835 µM	143 µM	58.6 µM	321 µM	915 µM	903 µM	effectively inhibited	516 µM	–
O=C(O)C(=O)Cc1c[nH]c2ccccc12 [IPA, indole-3-pyruvate]	241 µM	5000 µM	73.4 µM	90.6 µM	74 µM	5000 µM	73.4 µM	90.6 µM	74 µM	273 µM	108 µM	–	25.3 µM	–
